Among the data in ChEMBL document CHEMBL1123592, “Cluster significance analysis contrasted with three other quantitative structure-activity relationship methods” (J Med Chem, 1987) are logP, Activity and pKa values, retold here.

Data set [1] in a line: Partition coefficient (logP). Type of data set: physicochemical. As to conditions: octanol/water.
A short description of data set [2]: In vitro antibacterial activity was determined; antibacterial potency is less than 50% of that of lasalocid. Format: functional.
The nature of data set [3]: Dissociation constant was determined. Format: physicochemical.
Data set [4] can be described thus: In vitro antibacterial activity was determined. Format: functional.

For orientation: logP means a log measure of how a compound divides between an organic and an aqueous phase. A high value points to a more lipophilic compound. Consider `CCCCCCCCCC(=O)Oc1c(C)ccc(CC[C@@H](C)[C@H](O)[C@H](C)C(=O)[C@H](CC)[C@H]2O[C@](CC)([C@H]3CC[C@](O)(CC)[C@H](C)O3)C[C@@H]2C)c1C(=O)O`, for which the log partition coefficient (logP) in data set [1] came to 2.75. Further, the Activity in data set [2] amounted to 0.
For `CC[C@@H](C(=O)[C@@H](C)[C@@H](O)[C@H](C)CCc1c(/N=C/c2ccccc2)cc(C)c(O)c1C(=O)O)[C@H]1O[C@](CC)([C@H]2CC[C@](O)(CC)[C@H](C)O2)C[C@@H]1C`, in that order: 0.86 and 0.
For `CC[C@@H](C(=O)[C@@H](C)[C@@H](O)[C@H](C)CCc1ccc(C)c(OC(=O)c2ccc(Br)cc2)c1C(=O)O)[C@H]1O[C@](CC)([C@H]2CC[C@](O)(CC)[C@H](C)O2)C[C@@H]1C`, in that order: 3.48 and 0.
By pKa is commonly meant the negative logarithm of the acid dissociation constant. High values mean a group that holds its proton tightly, low ones a group that gives up its proton readily. Turning to `CC[C@@H](C(=O)[C@@H](C)[C@@H](O)[C@H](C)CCc1c([N+](=O)[O-])cc(C)c(O)c1C(=O)O)[C@H]1O[C@](CC)([C@H]2CC[C@](O)(CC)[C@H](C)O2)C[C@@H]1C`, the pKa in data set [3] was 2.4. In data set [1], this molecule showed a logP of 2.46. For the same molecule, in data set [2], the Activity stood at 0.
As to `CCCCCCCC(=O)Oc1c(C)ccc(CC[C@@H](C)[C@H](O)[C@H](C)C(=O)[C@H](CC)[C@H]2O[C@](CC)([C@H]3CC[C@](O)(CC)[C@H](C)O3)C[C@@H]2C)c1C(=O)O`, the lipophilicity (logP) in data set [1] is 2.21. Further, the Activity in data set [2] came to 0.
As for `CCCCC(=O)Oc1c(C)ccc(CC[C@@H](C)[C@H](O)[C@H](C)C(=O)[C@H](CC)[C@H]2O[C@](CC)([C@H]3CC[C@](O)(CC)[C@H](C)O3)C[C@@H]2C)c1C(=O)O`, the log partition coefficient (logP) in data set [1] turned out to be 2.08. Moreover, the Activity in data set [2] was determined as 0.
With `CC[C@@H](C(=O)[C@@H](C)[C@@H](O)[C@H](C)CCc1c(NC(C)=O)cc(C)c(O)c1C(=O)O)[C@H]1O[C@](CC)([C@H]2CC[C@](O)(CC)[C@H](C)O2)C[C@@H]1C`, in data set [3], the pKa turned out to be 4.3. Besides, the log partition coefficient (logP) in data set [1] was 1.04. The molecule also returned an Activity in data set [2] of 0.
For `CC[C@@H](C(=O)[C@@H](C)[C@@H](O)[C@H](C)CCc1c(N)cc(C)c(O)c1C(=O)O)[C@H]1O[C@](CC)([C@H]2CC[C@](O)(CC)[C@H](C)O2)C[C@@H]1C` [AMINOLASALOCID], the pKa in data set [3] stood at 6. In data set [1], this molecule displayed a log partition coefficient (logP) of 0.28. In addition, the Activity in data set [2] is 0.
Molecule `CC[C@@H](C(=O)[C@@H](C)[C@@H](O)[C@H](C)CCc1c(Br)cc(C)c(O)c1C(=O)O)[C@H]1O[C@](CC)([C@H]2CC[C@](O)(CC)[C@H](C)O2)C[C@@H]1C` [BROMOLASALOCID] gave an Activity in data set [4] of 1. This molecule also yielded a pKa in data set [3] of 3.9. This molecule also gave a logP in data set [1] of 3.25.
As for `CC[C@@H](C(=O)[C@@H](C)[C@@H](O)[C@H](C)CCc1c(Cl)cc(C)c(O)c1C(=O)O)[C@H]1O[C@](CC)([C@H]2CC[C@](O)(CC)[C@H](C)O2)C[C@@H]1C` [CHLOROLASALOCID], the Activity in data set [4] is reported as 1. Besides, in data set [3], the pKa was 4. Besides, the logP in data set [1] was 3.12.
Molecule `CC[C@@H](C(=O)[C@@H](C)[C@@H](O)[C@H](C)CCc1c([N+]#N)cc(C)c(O)c1C(=O)O)[C@H]1O[C@](CC)([C@H]2CC[C@](O)(CC)[C@H](C)O2)C[C@@H]1C` [DIAZOLASALOCID] returned a pKa in data set [3] of 6.6. Besides, in data set [2], the Activity stood at 0.
Consider `CC[C@@H](C(=O)[C@@H](C)[C@@H](O)[C@H](C)CCc1c(I)cc(C)c(O)c1C(=O)O)[C@H]1O[C@](CC)([C@H]2CC[C@](O)(CC)[C@H](C)O2)C[C@@H]1C` [IODOLASALOCID], for which the Activity in data set [4] is recorded as 1. The molecule further showed a pKa in data set [3] of 3.9. Moreover, in data set [1], the log partition coefficient (logP) is 3.19.
On the same counts, the results for `CC[C@@H](C(=O)[C@@H](C)[C@@H](O)[C@H](C)CCc1ccc(C)c(O)c1C(=O)O)[C@H]1O[C@](CC)([C@H]2CC[C@](O)(CC)[C@H](C)O2)C[C@@H]1C` [LASALOCID] are 1, 4.4 and 2.83.
